Data published in patent US10718028B2, “Fluorescent probes for abasic site detection” (CASE WESTERN RESERVE UIVERSITY, priority 2015, dated 2020).

How the values were obtained:
[1] = system: U:A-paired DNA; assay: SSB activity assay control reactions; format: biochemical
Description: (§1) SSB Activity Assay Control Reactions
Samples were prepared in triplicate.
After evaluating the fluorescence properties of Cy7MX, its ability to bind to AP sites was examined We developed an assay using a fluorescently tagged dsDNA (double stranded DNA) oligonucleotide with a single uracil incorporated into the labeled strand (FIG. 5A). A green emitting hexachlorofluorescein (HEX) label was incorporated at the 5′ end of the sense strand in order to avoid overlapping with the NIR fluorecent emission of Cy7MX. We expected that treatment of this oligomer with UDG would generate an AP site and subsequent treatment with APE would produce a single strand break. This break could be visualized by denaturing gel electrophoresis to reveal a 16mer single strand DNA (ssDNA) instead of the 40mer parent (FIG. 5B). However, we hypothesized that if the oligomer were treated with Cy7MX prior to APE treatment, the covalent Cy7MX:AP site lesion would not be recognized by APE as a substrate and no SSB would form.

[2] = system: AP DNA; assay: SSB activity assay, dose-response of AP site binding probes; format: biochemical; settings: 5 pmol AP DNA, FIG. 1
Description: FIG. 1 illustrates SSB activity assay is used to compare the dose-response of AP site binding probes in 5 pmol of AP DNA. Mean and standard deviation of triplicate samples are shown for each concentration.
The single strand break (SSB) assay was proposed as a quick, facile tool to screen AP site binding probes. Therefore, the assay was performed on novel AP site binding probes described above and the commercially available AP site binding probe, F422. […] The reduced response of F422 and DansylMX may be due in part to the compounds being fairly electron rich near the aminooxy binding moiety. This could lead to a Coulombic repulsion with the DNA phosphate backbone.
SSB activity assays were performed on a 40-mer duplex DNA synthesized by IDT with the sequence:
as §1

[3] = Absorption and emission spectra of AP site binding probes in ethanol; format: physicochemical
Description: NMR spectra were recorded on a Varian Mercury 300 MHz, a Varian Inova 400, and a Varian Inova 600 MHz spectrometer at room temperature, except where otherwise noted. Chemical shifts for 1H NMR were reported as 6, parts per million, and referenced to CHCl3 at 7.26 ppm or TMS at 0 ppm. Chemical shifts for ^13C NMR were reported as 6 and referenced to the center line of the CDCl3 triplet at 77.0 ppm or CH2Cl2 pentet at 54.0 ppm. Low resolution mass spectra were recorded on a ThermoScientific LCQ Advantage or a Finnigan LCQ Deca mass spectrometer. Fluorescence data were collected on a Varian Cary Eclipse fluorescence spectrophotometer in a quartz cuvette with a 1 cm pathlength or on a Tecan Infinite M200 scanner. Absorbance data were collected on a Varian Cary 50 Bio UV-Visible Spectrophotometer in a quartz cuvette with a 1 cm path length.
To characterize the fluorescent properties, the absorption and emission spectra were collected for all final compounds.

[4] = system: DLD1 WT cells; assay: MMS treatment, isolation, and Cy7MX analysis of DLD1 DNA; format: cell-based; settings: 3 h MMS exposure, 1 h Cy7MX
Description: DLD1 shControl (WT) cells at a density of 3 million cells per dish were plated in Falcon brand 100×20 mm cell culture dishes in 10 mL medium (DMEM supplemented with 10% heat inactivated FBS, penicillin/streptomycin, and nonessential amino acids) and incubated 16 h at 37° C. and 5% CO2 to ensure adhesion. Solutions of MMS were prepared in serum free DMEM medium at concentrations of 0.05, 0.25, 1, 4, and 10 mM. Medium was removed from the cells and replaced with the MMS or a serum free medium vehicle. Three plates were prepared per treatment group. Cells were incubated at 37° C. and 5% CO2 with continuous MMS exposure for 3 h. At the time points, cells were collected and DNA isolated as described above (Treatment of DLD1 cells with FUDR).
Pure DNA pellets were suspended in 190 μL water. A solution of Cy7MX (10 μL, final=25 μM) was added to each sample, keeping the stock solution and all treated samples vigorously in the dark until the final analysis. Samples were incubated with Cy7MX for 1 h at 37° C. in the dark. After incubation, DNA was purified and analyzed as described above.
Methyl methanesulfonate (MMS) is a methylating agent used to induce AP sites in cells. An MMS dose-response in DLD1 WT cells was performed for a 3 h treatment time. […] Fluorescence was measured following ethanol precipitation purification.

With `CCCN1/C(=C/C=C2\CCCC(/C=C/C3=[N+](CCC)c4ccccc4C3(C)C)=C2Oc2ccc(CC(=O)NCCCON)cc2)C(C)(C)c2ccccc21` [Cy7MX, 2-((E)-2-((E)-2-(4-(2-((3-(aminooxy)propyl)amino)-2-oxoethyl)phenoxy)-3-((E)-2-(3,3-dimethyl-1-propylindolin-2-ylidene)ethylidene)cyclohex-1-en-1-yl)vinyl)-3,3-dimethyl-1-propyl-3H-indol-1-ium 2,2,2-trifluoroacetate] the “SSB activity of the probe itself” value ([1]; U:A-paired DNA treated with Cy7MX alone (no enzymes)) was “no SSB activity”, the SSB activity ([1]; U:A-paired DNA with Cy7MX together with UDG and APE) was “the SSB activity was reduced” and the “dose-response and overall efficacy in SSB assay” value [2] was “acceptable dose-response and overall efficacy”. For the same compound, the Stokes shift [3] was 20 nm, the λabs max [3] was 770 nm and the λem max [3] was 796 nm. The “detection of AP sites in DNA of MMS treated cells” value [4] was “sensitive to the quantity of AP sites induced by mM concentrations of MMS”.
